Laboratory results as given in patent publication US7414132B2, “Opioid receptor antagonists” (Eli Lilly and Company, priority 2003, dated 2008).

Key:
Assay type in all cases: biochemical
[1] = target: mu opioid receptor (MOR) (Homo sapiens, UniProt P35372); test: SPA-based GTP-γ-S binding assay, mu opioid receptor; conditions: membranes, GTP-γ-[35S] SPA; antagonist assay with agonist DAMGO 1 micromolar; read-out: In Vitro Ki Mu
Description: (§1) An SPA-based GTP-γ-S assay format was developed based on previous opioid (Emmerson et al., J. Pharm Exp Ther 278, 1121, 1996; Horng et al., Society for Neuroscience Abstracts, 434.6, 2000) and muscarinic (DeLapp et al., JPET 289, 946, 1999) assay formats. Membranes were re-suspended in 20 mM HEPES, 100 mM NaCl, 5 mM MgCl2, 1 mM DTT, and 1 mM EDTA. Fifty (50) […] of GTP-γ-[35S], compound, membrane suspension (20 microgram/well), and wheat germ agglutinin coated SPA beads (1 mg/well) were added to clear bottom 96 well assay plates. GDP ([…]) was added to the membrane solution prior to addition to the assay plates. Plates were sealed and incubated for four hours at room temperature then placed in a refrigerator overnight to allow the beads to settle. Signal stability at 4° C. was determined to be >60 hours. Plates were warmed to room temperature and counted in a Wallac Microbeta scintillation counter.
(§2) For antagonist assays, specific agonists were added at the following concentrations: (MOR) DAMGO 1 micromolar, (DOR) DPDPE 30 nM, (KOR) U69593 300 nM. Kb's were determined by Cheng-Prusoff equation (see Cheng and Prusoff, Biochem. Pharmacol. 22, 3099, 1973).

[2] = target: kappa opioid receptor (KOR) (Homo sapiens, UniProt P41145); test: SPA-based GTP-γ-S binding assay, kappa opioid receptor; conditions: membranes, GTP-γ-[35S] SPA; antagonist assay with agonist U69593 300 nM; read-out: In Vitro Ki Kappa
Chain of kappa opioid receptor (KOR) (P41145 whole entry): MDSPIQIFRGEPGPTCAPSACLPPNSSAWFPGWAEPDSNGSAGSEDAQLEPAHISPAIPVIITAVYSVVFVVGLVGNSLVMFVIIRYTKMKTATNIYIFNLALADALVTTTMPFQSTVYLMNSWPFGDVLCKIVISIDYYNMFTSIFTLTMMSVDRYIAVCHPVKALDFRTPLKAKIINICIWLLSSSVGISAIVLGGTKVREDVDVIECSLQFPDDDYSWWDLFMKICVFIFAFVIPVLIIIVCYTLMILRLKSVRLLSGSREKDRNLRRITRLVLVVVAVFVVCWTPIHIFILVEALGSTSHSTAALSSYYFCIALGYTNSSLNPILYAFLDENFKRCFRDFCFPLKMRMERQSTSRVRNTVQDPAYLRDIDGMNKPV
Description: as §1, §2

[3] = target: delta opioid receptor (DOR) (Homo sapiens, UniProt P41143); test: SPA-based GTP-γ-S binding assay, delta opioid receptor; conditions: membranes, GTP-γ-[35S] SPA; antagonist assay with agonist DPDPE 30 nM; read-out: In Vitro Ki Delta
Chain of delta opioid receptor (DOR) (P41143 whole entry): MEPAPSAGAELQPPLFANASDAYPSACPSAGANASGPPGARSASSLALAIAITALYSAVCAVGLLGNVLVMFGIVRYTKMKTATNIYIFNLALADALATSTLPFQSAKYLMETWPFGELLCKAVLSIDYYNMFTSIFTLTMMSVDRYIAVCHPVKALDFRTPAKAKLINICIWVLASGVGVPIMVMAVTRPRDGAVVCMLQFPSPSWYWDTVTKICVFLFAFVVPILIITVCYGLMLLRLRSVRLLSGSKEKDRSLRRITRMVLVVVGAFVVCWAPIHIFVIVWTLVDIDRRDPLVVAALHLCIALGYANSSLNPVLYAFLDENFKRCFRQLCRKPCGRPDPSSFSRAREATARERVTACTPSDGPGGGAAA
Description: as §1, §2

Chain of mu opioid receptor (MOR) (P35372 whole entry): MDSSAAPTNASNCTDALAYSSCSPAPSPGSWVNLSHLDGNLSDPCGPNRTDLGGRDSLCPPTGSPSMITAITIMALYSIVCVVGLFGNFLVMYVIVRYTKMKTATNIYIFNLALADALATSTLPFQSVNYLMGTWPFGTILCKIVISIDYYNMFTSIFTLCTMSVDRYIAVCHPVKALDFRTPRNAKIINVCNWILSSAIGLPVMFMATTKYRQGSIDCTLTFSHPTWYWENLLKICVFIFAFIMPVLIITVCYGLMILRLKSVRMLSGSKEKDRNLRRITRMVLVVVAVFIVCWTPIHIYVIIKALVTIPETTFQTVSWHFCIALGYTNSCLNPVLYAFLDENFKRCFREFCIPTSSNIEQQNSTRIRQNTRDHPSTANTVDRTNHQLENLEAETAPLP

CC(C)CCNCc1ccc(Oc2ccc(/C(N)=N/C#N)cn2)cc1 [Example 8, N-Cyano-6-{4-[(3-methyl-butylamino)-methyl]-phenoxy}-nicotinamidine]
Ki [1]: 7.83 nM
Ki [2]: 43.2 nM
Ki [3]: 178 nM

CC(C)CCNCc1ccc(Oc2ccc(C(=N)N)cn2)cc1 [Example 3, 6-{4-[(3-Methyl-butylamino)-methyl]-phenoxy}-nicotinamidine]
Ki [1]: 46.1 nM
Ki [2]: 134 nM
Ki [3]: 485 nM

CC(C)CCNCc1ccc(Oc2ccc3c(N)noc3c2)cc1 [Example 11, 6-{4-[(3-Methyl-butylamino)-methyl]-phenoxy}-benzo[d]isoxazol-3-ylamine]
Ki [1]: 5.81 nM
Ki [2]: 47.5 nM
Ki [3]: 81.1 nM

CC(C)CCNCc1ccc(Oc2ccc(C3=NCCN3)cn2)cc1 [Example 4, {4-[5-(4,5-Dihydro-1H-imidazol-2-yl)-pyridin-2-yloxy]-benzyl}-(3-methyl-butyl)-amine]
Ki [1]: 9.5 nM
Ki [2]: 34.1 nM
Ki [3]: 120 nM

CC(C)CCNCc1ccc(Oc2ccc(/C(N)=N/O)cn2)cc1 [Example 2, N-Hydroxy-6-{4-[(3-methyl-butylamino)-methyl]-phenoxy}-nicotinamidine]
Ki [1]: 43.4 nM
Ki [2]: 117 nM
Ki [3]: 269 nM

CC(C)CCNCc1ccc(Oc2ccc(-c3ncc[nH]3)cn2)cc1 [Example 10, {4-[5-(1H-Imidazol-2-yl)-pyridin-2-yloxy]-benzyl}-(3-methyl-butyl)-amine]
Ki [1]: 5.77 nM
Ki [2]: 40.1 nM
Ki [3]: 214 nM

c1csc(CCNCc2ccc(Oc3ccc(C4=NCCN4)cn3)cc2)c1 [Example 5, {4-[5-(4,5-Dihydro-1H-imidazol-2-yl)-pyridin-2-yloxy]-benzyl}-(2-thiophen-2yl-ethyl)amine]
Ki [1]: 16.4 nM
Ki [2]: 32.8 nM
Ki [3]: 370 nM
